Reference: patent US20140342025A1, “ARJUNOLIC ACID FOR INCREASING SEBUM PRODUCTION” (EVONIK INDUSTRIES AG, priority 2011, published 2014)

Test: Percutaneous absorption study on a pig skin model
Format: in vitro ADME
Details: arjunolic acid in combination with 1,2-pentanediol in cosmetic formulation vs. formulation without 1,2-pentanediol; FIG. 2
Description: In practice, the study was performed in accordance with a current protocol, as described for example in S. Richert, A. Schrader, K. Schrader, Int. J. Cosmet. Sci. 2003, 25, 5-13.

Structure (SMILES): CC1(C)CC[C@]2(C(=O)O)CC[C@]3(C)C(=CC[C@@H]4[C@@]5(C)C[C@@H](O)[C@H](O)[C@@](C)(CO)[C@@H]5CC[C@]43C)[C@@H]2C1 [arjunolic acid]
- bioavailability (skin penetration) as a function of solvent: increase in bioavailability
